Like-named read-outs stand apart in the source and are kept apart here.
How the values were obtained:
HOB cells = assay: Cell adhesion assay (cell attachment and cell spreading), HOB cells; type: cell-based, human; details: for inhibition at 5 µM: Homo sapiens
Protocol: To evaluate cell attachment and cell spreading exponentially growing cells were detached from substratum by trypsinisation (0.25% (v/v) trypsin in 5 mM EDTA), collected into medium containing a ˜7% (V/V) final concentration of FCS, washed twice with medium without serum and then plated (2×10^4cells/well) onto FN-coated 96-well plates with and without further immobilisation of tTG. After a maximum of 20-minute incubation (to minimise the effect of any endogenous secreted proteins) at 37° C. in a 5% CO2 atmosphere, cells were fixed in 3.7% (w/v) paraformaldehyde in PBS pH 7.4, permeabilised in 0.1% (v/v) Triton X-100 and stained with May Grunwald and Giemsa stain (Jones et al 1997, Verderio et al. 2000). In some cases cells were pre-treated for 15 hours with 1 mM cycloheximide before plating to rule out any effects of endogenous secreted adhesion molecules. Digital images of three non-overlapping fields covering the central portion of each well was captured using a video digital camera (Olympus DP10) and examined using the Image Analysis programme Scion Image (National Institute of Health, USA). A total of at least nine images of separate fields per sample were examined for a total of at least 900 cells in the FN control. The number of cell particles in each field was measured by thresholding and particle analysis setting a minimum particle size of 50 pixels. Spread cells were analysed and quantified by “density slicing” and particle analysis.
Adhesion of cells to FN was decreased by pre-incubation with RGD synthetic peptide (50 μg/ml, ˜75 ∝M, 100 μg/ml ˜150 μM, or 200 μg/ml ˜300 μM) or function blocking anti-integrin antibodies 40 μg/ml anti-β1 integrin (JB1A), 30 μg/ml anti-α5 integrin (P1D6). Detached cells (as described above) were pre-incubated in suspension (2×10^5cells/ml) in serum-free medium containing either RGD peptide or anti-integrins antibodies at 37° C. for 10 minutes in 5% CO2 atmosphere, and then seeded in the presence of the peptides.

guinea pig liver tTG = target: T1, guinea pig liver tTG (Cavia cutleri, UniProt P08587); assay: tTG cross-linking activity (incorporation of biotinylated cadaverine into FN); type: biochemical
T1 construct: Purified guinea pig liver tTG was either obtained by Sigma-Aldrich or purified in the laboratory; tissue Sigma-Aldrich (or purified in the laboratory according to Leblanc et al., 1999); host or cells: guinea pig liver
T1 sequence (P08587 2-690): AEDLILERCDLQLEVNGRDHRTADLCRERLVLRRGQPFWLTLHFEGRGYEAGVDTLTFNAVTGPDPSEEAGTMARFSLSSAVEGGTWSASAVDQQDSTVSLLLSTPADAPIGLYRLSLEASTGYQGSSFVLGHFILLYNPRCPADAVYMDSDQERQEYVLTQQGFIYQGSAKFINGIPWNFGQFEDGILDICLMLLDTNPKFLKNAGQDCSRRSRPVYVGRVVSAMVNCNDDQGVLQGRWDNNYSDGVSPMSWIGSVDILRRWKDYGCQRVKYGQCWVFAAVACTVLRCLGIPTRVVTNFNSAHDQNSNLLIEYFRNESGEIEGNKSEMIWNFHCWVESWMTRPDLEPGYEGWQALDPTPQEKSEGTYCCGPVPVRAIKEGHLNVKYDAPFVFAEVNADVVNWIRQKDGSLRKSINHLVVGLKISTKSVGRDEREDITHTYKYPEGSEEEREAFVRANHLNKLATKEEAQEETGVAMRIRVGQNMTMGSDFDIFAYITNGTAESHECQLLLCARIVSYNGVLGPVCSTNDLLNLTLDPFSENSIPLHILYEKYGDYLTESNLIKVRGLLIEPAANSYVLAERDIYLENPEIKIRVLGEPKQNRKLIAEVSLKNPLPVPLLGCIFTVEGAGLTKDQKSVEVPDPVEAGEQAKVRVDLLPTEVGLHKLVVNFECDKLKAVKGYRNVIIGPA
Protocol: (§1) The wells of a 96-well plate (0.32 cm^2) were coated with human plasma FN (5 μg/ml) in 50 mM Tris-HCl, pH 7.4, […], by incubation at 4° C. for approximately 15 h. For tTG immobilisation, the FN solution was removed, the wells were washed once in 50 mM Tris-HCl, pH 7.4 and then incubated with purified guinea pig liver tTG (20 μg/ml) in PBS pH 7.4 containing 2 mM EDTA pH 7.4, 100 μl/well. For control wells coated with tTG only, the tTG solution was added directly to tissue culture plastic (TCP). After one hour-incubation at 37° C., the tTG solution was removed and wells were washed once in 50 mM Tris-HCl, pH 7.4 and once in serum-free culture medium before cell seeding. The presence of tTG immobilised on FN was confirmed by an ELISA-type assay (Jones et al. 1997), using Cub 74 (1:5000). Absorbance values were read in an ELISA plate reader at 450 nm (Tecan Spectrafluor). Confirmation that the immobilised tTG was still active as a Ca^2+-dependent ε-(γ-glutamyl)lysine crosslinker was gained by measuring tTG activity with a microtitre assay that is based on the incorporation of biotinylated cadaverine into FN in the presence of 5 mM CaCl2 and 5 mM DTT (Jones et al. 1997) and compared with the activity of free tTG standard. To confirm that the cross-linking activity was Ca^2+-dependent, 5 mM CaCl2 was replaced with 5 mM EDTA pH 7.4. Absorbance values were read at 450 nm and data were expressed as absorbance value with Ca^2+ in the reaction buffer minus background absorbance value with EDTA in the reaction buffer. Similarly to tTG, FN antigen was detected by using a modified ELISA based on a rabbit polyclonal anti-FN antibody (1/5000) followed by peroxidase-labelled anti-rabbit IgG (1/5000).

[1] = target: T2, tTG activity found at the HOB cell-surface (Homo sapiens, UniProt P21980); assay: tTG activity at the HOB cell-surface; type: cell-based; details: R283 treatment; data not shown
T2 construct: the low tTG activity found at the HOB cell-surface; endogenous in cells; host or cells: primary human osteoblasts (HOB)
T2 sequence (P21980 1-687): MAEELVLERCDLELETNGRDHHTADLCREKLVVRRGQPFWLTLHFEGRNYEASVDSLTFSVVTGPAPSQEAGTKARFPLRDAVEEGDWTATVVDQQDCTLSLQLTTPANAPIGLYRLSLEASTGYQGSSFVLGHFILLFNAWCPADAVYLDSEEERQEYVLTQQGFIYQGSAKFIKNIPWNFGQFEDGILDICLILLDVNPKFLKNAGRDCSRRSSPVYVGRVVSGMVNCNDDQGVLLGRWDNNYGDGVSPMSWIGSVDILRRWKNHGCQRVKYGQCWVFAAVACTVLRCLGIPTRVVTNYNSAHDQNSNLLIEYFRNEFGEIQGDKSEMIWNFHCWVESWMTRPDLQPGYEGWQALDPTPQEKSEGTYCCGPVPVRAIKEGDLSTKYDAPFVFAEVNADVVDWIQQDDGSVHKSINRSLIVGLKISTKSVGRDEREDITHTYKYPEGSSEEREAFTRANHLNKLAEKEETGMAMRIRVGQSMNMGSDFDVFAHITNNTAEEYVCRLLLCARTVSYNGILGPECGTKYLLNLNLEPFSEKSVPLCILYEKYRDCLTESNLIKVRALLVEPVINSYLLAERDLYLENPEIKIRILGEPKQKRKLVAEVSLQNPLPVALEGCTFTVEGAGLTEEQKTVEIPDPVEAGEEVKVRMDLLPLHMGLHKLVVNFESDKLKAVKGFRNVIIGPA

human plasma FN = assay: ELISA-type assay of tTG bound to immobilised FN; type: binding; details: 1 mM GTP-γS; ELISA using Cub 74
Protocol: as §1, with “Confirmation that the immobilised tTG was still active as a Ca^2+-dependent ε-(γ-glutamyl)lysine crosslinker was gained by measuring tTG activity with a microtitre assay that is based on the incorporation of biotinylated cadaverine into FN in the presence of 5 mM CaCl2 and 5 mM DTT (Jones et al. 1997) and compared with the activity of free tTG standard. To confirm that the cross-linking activity was Ca^2+-dependent, 5 mM CaCl2 was replaced with 5 mM EDTA pH 7.4.” left out

[2] = enzyme pre-treatment 15 mU/ml, RGD 100 μg/ml

## CC(=O)CSc1n(C)cc[n+]1C.[Cl-] [R283]
HOB cells; 100 μM R283
  cell adhesion on FN bound to R283-inactivated tTG relative to adhesion on FN with RGD peptide: twice
HOB cells; 100 μM R283, with or without RGD peptide
  cell adhesion on FN bound to R283-inactivated tTG versus without R283: not significantly different
Guinea pig liver tTG; 100 μM R283
  transamidating activity of immobilised tTG: completely blocked
[1]
  tTG activity at the HOB cell-surface: inhibited to negligible values

## Nc1nc2c(ncn2[C@@H]2O[C@H](COP(=O)(O)OP(=O)(O)OP(O)(O)=S)[C@@H](O)[C@H]2O)c(=O)[nH]1 [GTP-γS]
Human plasma FN
  level of tTG immobilised on FN: did not significantly alter
HOB cells; 1 mM GTP-γS, RGD 100 μg/ml
  RGD-independent cell attachment and spreading mediated by tTG-FN: partially but significantly reduced
Guinea pig liver tTG; GTP-γS, DMEM with reducing agent, data not shown
  transamidating activity of FN-bound tTG: acts as transamidating inhibitor

## chondroitinase ABC
HOB cells; chondroitinase ABC 15 mU/ml
  cell adhesion to FN: no significant affect
HOB cells; [2]
  RGD-independent cell attachment on tTG-FN: only marginally affected
  RGD-independent cell spreading on tTG-FN: did not significantly alter

## O[C@@H](CS)[C@@H](O)CS [DTT]
Guinea pig liver tTG; DMEM with 5 mM DTT versus DMEM
  increase of transamidating activity of FN-bound tTG: approx 6 fold

## Cn1c2ccccc2c2c3c(c4c5ccccc5n(CCC#N)c4c21)CNC3=O [GO6976]
HOB cells; 5 μM GO6976, FN + RGD
  effect on inhibition of attachment and spreading mediated by the RGD peptide: significantly augment the inhibition
HOB cells; 5 μM GO6976, RGD peptide, read-out: inhibition of attachment mediated by the tTG-FN complex
  inhibition at 5 µM: > 90%
HOB cells; 5 μM GO6976, RGD peptide, read-out: inhibition of spreading mediated by the tTG-FN complex
  inhibition at 5 µM: ~85%
HOB cells; 5 μM GO6976, control peptide RAD, read-out: inhibition of attachment on FN
  inhibition at 5 µM: ~30%
HOB cells; 5 μM GO6976, control peptide RAD, read-out: inhibition of spreading on FN
  inhibition at 5 µM: ~30%

## GRADSP [RAD peptide]
HOB cells; 200 μg/ml RAD control peptide
  cell attachment on FN compared to untreated cells (RAD 0): reduction in cell attachment

From patent US20070077607A1, “Novel screening method” (priority 2003, published 2007)
